Columns and labels:
alcA/alcR system [1] = assay: non-solvent chemical treatments, induction of the alcA/alcR switch; type: in vivo; settings: non-solvent chemical treatment
alcA/alcR system [2] = assay: hydroponic seedling system (root drenching), induced reporter gene expression; type: in vivo; settings: FIG. 2
From the text: (§1) 3. We have tested the specificity of alcA/alcR system with a range of solvents used in agronomic practice.

alcA/alcR system [3] = settings: applied as a foliar spray, FIG. 3
From the text: as §1
FIG. 3 illustrates the levels of induced reporter gene activity when the chemicals listed in Table 1 were applied as a foliar spray;

[4] = system: Brassica napus var Westar; assay: kill curve on glyphosate, oil seed rape growing tip plus two leaves in MS medium; type: in vivo
Method: (§2) Kill Curves for Tobacco var Samsun and Brassica napus var Westar on glyphosate
(§3) Both species were tested on a range of glyphosate concentrations by inserting, in the case of tobacco a 5-6 mm stem segment carrying a leaf node and in the case of oil seed rape the growing tip plus two leaves into MS medium containing glyphosate at […] glyphosate isopropylamine salt.

Tobacco var Samsun = assay: kill curve on glyphosate, tobacco stem segment in MS medium; type: in vivo
Method: as §2, §3

[5] = system: 5-enol-pyruvylshikimate-3-phosphate (EPSP) synthase; assay: EPSPS assay in plant extracts (14C-labelled phosphoenol pyruvate, HPLC); type: biochemical
Method: Assays for 5-enol-pyruvylshikimate-3-phosphate (EPSP) synthase activity in plant extracts were carried out (1) by following the disappearance of the phosphoenol pyruvate substrate (as described by Rubin, J. L., Gaines, C. G and Jensen, R. A., in Plant Physiol (1984 75, 839-845) or (2) by conducting the assay in the reverse direction and coupling to pyruvate kinase and lactate dehydrogenase (as described by Mousdale D. M. and Coggins J. R. in Planta (1984) 160, 78-83) or (3) by using 14(-labelled phosphoenol pyruvate as substrate and detecting the formation of radioactive EPSP by HPLC on an anion exchange column and detecting using a flow-through radioactivity detector as described by Della-Cioppa et al in Proc. Nat. Acad. Sci. (USA) (1986), 83, 6873-6877.

Molecule: CC1=CC(=O)CC(C)(C)C1(O)/C=C/C(C)=C\C(=O)O (stereo not shown) [absisic acid]
- induction of the alcA/alcR system (alcA/alcR system [1]): failed to induce

Molecule: CCC(C)O (stereo not shown) [butan-2-ol]
- levels of induced reporter gene expression (alcA/alcR system [2]): high levels of induced reporter gene expression

Molecule: O=C1CCCCC1 [cyclohexanone]
- levels of induced reporter gene expression (alcA/alcR system [2]): high levels of induced reporter gene expression

Molecule: CCO [ethanol]
- levels of induced reporter gene expression (alcA/alcR system [2]): high levels of induced reporter gene expression
- levels of induced reporter gene activity (alcA/alcR system [3]): high levels of induced reporter gene activity

Molecule: C=C [ethylene]
- induction of the alcA/alcR system (alcA/alcR system [1]): failed to induce

Molecule: C=C1C[C@]23C[C@@]1(O)CC[C@H]2[C@@]12C=C[C@H](O)[C@@](C)(C(=O)O1)[C@H]2[C@@H]3C(=O)O [gibberelic acid]
- induction of the alcA/alcR system (alcA/alcR system [1]): failed to induce

Molecule: O=C(O)CNCP(=O)(O)O [glyphosate, N-phosphonomethyl-glycine]
- growth scored after two weeks ([4]; 0.005 mM in MS medium): No stem growth, 1 new leaf, roots to 1 cm
- growth scored after two weeks ([4]; 0.011 mM in MS medium): No stem growth, no new leaves, roots ˜ 0.5 cm
- growth scored after two weeks ([4]; 0.0275 mM in MS medium): No stem growth, no new leaves, roots ˜ 2 mm
- growth scored after two weeks ([4]; 0.055 mM in MS medium): No growth in any organ, ends of stem blackened
- growth scored after two weeks (Tobacco var Samsun; 0.005 mM in MS medium): No growth
- growth scored after two weeks (Tobacco var Samsun; 0.01 mM in MS medium): No growth
- growth scored after two weeks (Tobacco var Samsun; 0.011 mM in MS medium): No growth
- growth scored after two weeks (Tobacco var Samsun; 0.0275 mM in MS medium): No growth
- growth scored after two weeks (Tobacco var Samsun; 0.055 mM in MS medium): No growth
- inhibition of EPSP synthase activity [5]: relatively resistant to inhibition

Molecule: O=C(O)c1ccccc1O [salicylic acid]
- induction of the alcA/alcR system (alcA/alcR system [1]): failed to induce

Molecule: auxin
- induction of the alcA/alcR system (alcA/alcR system [1]): failed to induce

Reference: patent US6380463B1, “Inducible herbicide resistance” (priority 1995, dated 2002)
